Each structure is given as a SMILES string.

In patent US11098044B2, “Imidazopyridinyl compounds and use thereof for treatment of neurodegenerative disorders” (1ST Biotherapeutics, Inc., priority 2019, dated 2021) one finds IC50 data, which are given here for 22 compounds.

Type in all cases: biochemical
For one test, the target named is LRRK2 (WT) (Homo sapiens (Human), UniProt Q5S007). The test can be described thus: LRRK2 Kinase Assay (Adapta). The following applies: 70 μM ATP, LRRKtide substrate. As to the method: (§1) The LRRK2 and LRRK2 G2019S kinase assays were performed using the Adapta™ technology in ThermoFisher Scientific. This experiment was carried out according to the supplier's protocol. Briefly, assay conditions were as follows. The mixture of substrate (LRRKtide) and each kinase was prepared in 50 mM Tris pH 8.5, 0.01% BRIJ-35, 10 mM MgCl2, 1 mM EGTA, 0.02% NaN3. Assays were performed in the presence of 70 μM ATP and 100 μM ATP (KmATP) in LRRK2 and LRRK2 G2019S, respectively. The reaction was progressed at room temperature for 1 hour. Upon completion of kinase reaction, 5 μL of Detection Mix was added and after 60 min incubation time, the emission ratio of 665/615 nm was calculated.

Test [1] concerns the target c-Abl (His-tagged recombinant human ABL1) (Homo sapiens (Human), UniProt P00519). Nature of the test: c-abl Kinase Assay (ADP-Glo). The following applies: ATP (25 μM), Abltide substrate. As for the experimental part:
ADP-Glo assay kit was purchased from Promega. Magnesium chloride (MgCl2), bovine serum albumin (BSA), ethylene glycol-bis(p-aminoethyl ether)-N,N,N′,N′-tetraacetic acid (EGTA), triton X-100, 1,4-dithiothreitol (DTT) and dimethyl sulfoxide (DMSO) were purchased from Sigma-Aldrich. HEPES buffer was purchased from Gibco. ABL1 kinase and Abltide were purchased from Signalchem.
c-Abl kinase activity was measured by Promega's ADP-Glo™ Assay. In this assay, His-tagged recombinant human ABL1 (0.25 ng/μl) is incubated with 5 μL of compounds (0.5% DMSO), 5 μL of Abltide (0.01 μg/μl) and 5 μL of ATP (25 μM) in buffer (50 mM HEPES, 7.5; 10 mM MgCl2; 1 mM EGTA; 0.05% BSA; 0.01% Triton X-100; 2 mM DTT). The assay was started by incubating the reaction mixture in a 96-well plate at 30° C. for 30-min. After the incubation, 25 μL ADP-Glo reagent was added and the reaction was incubated at room temperature for 40-min to stop the reaction and degrade residual ATP. The ADP product was then converted to ATP by adding 50 μL per well of detection reagent. Luminescence was detected after 30-min room temperature incubation with the Molecular device I3X plate reader. The IC50 values were calculated from a series of percent inhibition values determined at a range of inhibitor concentration using software routines as implemented in the GraphPad Prism 7 software and Sigma Plot 13.0.
(In general: ADP-Glo first removes unused ATP, then detects ADP through luciferase.)

A further test concerns the target LRRK2 G2019S (Homo sapiens (Human), UniProt Q5S007, G2019S). Nature of the test: LRRK2 G2019S Kinase Assay (Adapta). The following applies: 100 μM ATP, LRRKtide substrate; read-out: LRRK2_G2019S IC50. As for the experimental part: as §1

LRRK2 G2019S, sequence (Q5S007 whole entry G2019S): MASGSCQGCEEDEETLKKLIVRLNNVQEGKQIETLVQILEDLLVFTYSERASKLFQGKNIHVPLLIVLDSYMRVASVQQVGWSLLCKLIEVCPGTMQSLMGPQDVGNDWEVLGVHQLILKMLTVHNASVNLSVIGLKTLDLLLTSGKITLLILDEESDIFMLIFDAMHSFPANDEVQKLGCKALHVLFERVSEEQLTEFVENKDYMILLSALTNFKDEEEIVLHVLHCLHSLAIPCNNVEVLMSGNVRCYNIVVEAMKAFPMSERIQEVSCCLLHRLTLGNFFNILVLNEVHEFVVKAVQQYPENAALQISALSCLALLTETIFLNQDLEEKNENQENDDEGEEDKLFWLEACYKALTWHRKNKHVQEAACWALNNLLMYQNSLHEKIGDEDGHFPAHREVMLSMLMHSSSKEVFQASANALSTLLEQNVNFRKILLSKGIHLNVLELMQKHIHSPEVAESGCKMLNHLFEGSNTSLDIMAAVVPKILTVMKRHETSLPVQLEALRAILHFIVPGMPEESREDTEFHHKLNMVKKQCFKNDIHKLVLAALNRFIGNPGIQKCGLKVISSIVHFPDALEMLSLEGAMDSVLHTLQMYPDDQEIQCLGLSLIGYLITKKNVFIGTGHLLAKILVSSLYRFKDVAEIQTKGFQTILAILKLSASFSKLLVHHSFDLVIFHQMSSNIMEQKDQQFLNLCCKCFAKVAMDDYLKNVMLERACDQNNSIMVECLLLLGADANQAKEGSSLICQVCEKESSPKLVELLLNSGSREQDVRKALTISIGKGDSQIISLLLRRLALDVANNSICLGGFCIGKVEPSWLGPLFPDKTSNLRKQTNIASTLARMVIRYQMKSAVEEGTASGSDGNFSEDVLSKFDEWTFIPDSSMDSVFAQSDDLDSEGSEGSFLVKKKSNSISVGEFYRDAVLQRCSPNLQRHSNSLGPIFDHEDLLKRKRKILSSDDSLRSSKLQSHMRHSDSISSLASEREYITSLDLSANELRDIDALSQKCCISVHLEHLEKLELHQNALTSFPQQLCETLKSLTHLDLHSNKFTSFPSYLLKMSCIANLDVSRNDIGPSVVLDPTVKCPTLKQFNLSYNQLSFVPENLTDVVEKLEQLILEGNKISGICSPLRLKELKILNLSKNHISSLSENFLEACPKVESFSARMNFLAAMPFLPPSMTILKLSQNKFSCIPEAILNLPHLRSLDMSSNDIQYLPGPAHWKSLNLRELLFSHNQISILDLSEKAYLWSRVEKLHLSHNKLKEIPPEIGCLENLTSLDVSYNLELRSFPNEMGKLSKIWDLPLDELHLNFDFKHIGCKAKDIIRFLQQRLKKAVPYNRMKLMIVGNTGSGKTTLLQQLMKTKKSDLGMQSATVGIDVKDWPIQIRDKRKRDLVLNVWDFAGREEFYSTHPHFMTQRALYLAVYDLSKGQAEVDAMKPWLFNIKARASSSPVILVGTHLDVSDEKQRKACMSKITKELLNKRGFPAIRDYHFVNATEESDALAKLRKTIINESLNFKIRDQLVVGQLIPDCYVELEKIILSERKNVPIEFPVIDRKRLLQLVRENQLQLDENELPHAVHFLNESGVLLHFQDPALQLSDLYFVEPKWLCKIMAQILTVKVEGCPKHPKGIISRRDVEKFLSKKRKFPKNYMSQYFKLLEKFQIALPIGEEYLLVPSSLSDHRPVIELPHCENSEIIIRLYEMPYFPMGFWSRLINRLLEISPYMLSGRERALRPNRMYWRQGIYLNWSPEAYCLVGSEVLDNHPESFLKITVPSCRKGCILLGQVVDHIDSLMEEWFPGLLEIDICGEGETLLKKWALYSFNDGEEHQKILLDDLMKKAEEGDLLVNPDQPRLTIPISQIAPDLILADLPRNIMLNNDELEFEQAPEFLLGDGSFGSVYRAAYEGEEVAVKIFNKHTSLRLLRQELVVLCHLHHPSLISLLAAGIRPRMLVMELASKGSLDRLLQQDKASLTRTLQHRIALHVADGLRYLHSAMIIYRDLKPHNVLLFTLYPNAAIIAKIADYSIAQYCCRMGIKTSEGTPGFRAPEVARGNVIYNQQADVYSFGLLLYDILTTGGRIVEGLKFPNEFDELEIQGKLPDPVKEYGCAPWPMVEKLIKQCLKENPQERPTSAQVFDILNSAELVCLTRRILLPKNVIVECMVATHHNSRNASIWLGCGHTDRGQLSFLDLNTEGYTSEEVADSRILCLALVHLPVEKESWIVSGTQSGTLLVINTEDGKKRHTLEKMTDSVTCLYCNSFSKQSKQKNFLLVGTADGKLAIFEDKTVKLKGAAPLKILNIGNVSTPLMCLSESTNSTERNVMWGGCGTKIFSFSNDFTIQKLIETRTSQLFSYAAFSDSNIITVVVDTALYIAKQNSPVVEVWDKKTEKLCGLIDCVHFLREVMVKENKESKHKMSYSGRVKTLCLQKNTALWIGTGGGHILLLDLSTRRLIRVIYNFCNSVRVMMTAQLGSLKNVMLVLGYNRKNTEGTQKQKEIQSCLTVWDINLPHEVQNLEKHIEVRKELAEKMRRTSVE
LRRK2 (WT), sequence (Q5S007 whole entry): as the sequence (Q5S007 whole entry G2019S) above, with S2019G counted along it
c-Abl (His-tagged recombinant human ABL1), sequence (P00519 whole entry): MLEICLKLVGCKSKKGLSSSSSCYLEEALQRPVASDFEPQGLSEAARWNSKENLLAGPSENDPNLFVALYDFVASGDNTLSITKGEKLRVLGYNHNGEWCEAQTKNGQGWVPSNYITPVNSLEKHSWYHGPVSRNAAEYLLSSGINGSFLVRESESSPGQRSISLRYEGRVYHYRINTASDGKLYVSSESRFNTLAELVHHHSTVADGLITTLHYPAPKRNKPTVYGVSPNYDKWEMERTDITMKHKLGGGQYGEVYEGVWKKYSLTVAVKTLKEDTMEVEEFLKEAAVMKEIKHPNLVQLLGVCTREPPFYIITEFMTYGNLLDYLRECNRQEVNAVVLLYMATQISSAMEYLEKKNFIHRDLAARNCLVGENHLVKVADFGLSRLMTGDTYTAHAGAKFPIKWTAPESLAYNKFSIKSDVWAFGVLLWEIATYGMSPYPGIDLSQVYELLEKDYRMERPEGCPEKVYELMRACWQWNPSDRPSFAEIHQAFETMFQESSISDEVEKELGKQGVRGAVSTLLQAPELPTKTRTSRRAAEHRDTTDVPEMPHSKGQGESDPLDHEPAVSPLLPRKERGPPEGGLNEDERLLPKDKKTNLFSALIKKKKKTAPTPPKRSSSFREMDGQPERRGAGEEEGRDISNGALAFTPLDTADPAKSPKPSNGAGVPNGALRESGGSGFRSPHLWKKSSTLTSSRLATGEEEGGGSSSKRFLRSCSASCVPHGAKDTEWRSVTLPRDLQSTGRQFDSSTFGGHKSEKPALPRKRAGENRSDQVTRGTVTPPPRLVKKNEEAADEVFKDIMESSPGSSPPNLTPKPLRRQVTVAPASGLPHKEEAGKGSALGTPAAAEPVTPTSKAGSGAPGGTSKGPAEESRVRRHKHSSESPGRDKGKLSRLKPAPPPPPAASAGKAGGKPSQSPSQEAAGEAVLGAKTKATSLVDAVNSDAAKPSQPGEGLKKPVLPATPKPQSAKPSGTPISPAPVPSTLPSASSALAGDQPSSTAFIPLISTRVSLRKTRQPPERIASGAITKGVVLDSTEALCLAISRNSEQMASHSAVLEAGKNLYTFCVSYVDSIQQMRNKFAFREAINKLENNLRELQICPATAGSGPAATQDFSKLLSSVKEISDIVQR

For the compound `Cc1c(F)cncc1-c1ccc2nc(NC(=O)[C@@H]3C[C@@H]3F)cn2c1` [Example 14, (1S,2S)-2-fluoro-N-(6-(5-fluoro-4-methylpyridin-3-yl)imidazo[1,2-a]pyridin-2-yl)cyclopropane-1-carboxamide], the IC50 against LRRK2 (WT) is 101 to 1000 nM; in test [1], under 10 nM; on LRRK2 G2019S it was 101 to 1000 nM.
For `Cc1cccc(F)c1-c1ccc2nc(NC(=O)[C@@H]3C[C@@H]3F)cn2c1` [Example 2, (1S,2S)-2-fluoro-N-(6-(2-fluoro-6-methylphenyl)imidazo[1,2-a]pyridin-2-yl)cyclopropane-1-carboxamide], the IC50 against LRRK2 (WT) was 101 to 1000 nM; in test [1] it was under 10 nM; on LRRK2 G2019S it was 10 to 100 nM.
As for `O=C1Cc2ccc(-c3ccc4nc(NC(=O)[C@@H]5C[C@@H]5F)cn4c3)cc2N1` [Example 35, (1S,2S)-2-fluoro-N-(6-(2-oxoindolin-6-yl)imidazo[1,2-a]pyridin-2-yl)cyclopropane-1-carboxamide], the IC50 was over 1000 nM on LRRK2 (WT), 10 to 100 nM in test [1] and over 1000 nM on LRRK2 G2019S.
As to `Cc1c(F)cccc1-c1ccc2nc(NC(=O)[C@@H]3C[C@@H]3F)c(C)n2c1` [Example 8, (1S,2S)-2-fluoro-N-(6-(3-fluoro-2-methylphenyl)-3-methylimidazo[1,2-a]pyridin-2-yl)cyclopropane-1-carboxamide], the IC50 at LRRK2 (WT) was 101 to 1000 nM; in test [1], 10 to 100 nM; at LRRK2 G2019S, 101 to 1000 nM.
Consider `N#Cc1c(F)cccc1-c1ccc2nc(NC(=O)[C@@H]3C[C@@H]3F)cn2c1` [Example 60, (1S,2S)—N-(6-(2-cyano-3-fluorophenyl)imidazo[1,2-a]pyridin-2-yl)-2-fluorocyclopropanecarboxamide], for which the IC50 (against LRRK2 (WT); in test [1]; on LRRK2 G2019S) was 10 to 100 nM in each case.
Consider `Cc1ccc(-c2cc[nH]c2)cc1-c1ccc2nc(NC(=O)[C@@H]3C[C@@H]3F)cn2c1` [Example 40, (1S,2S)-2-fluoro-N-(6-(2-methyl-5-(1H-pyrrol-3-yl)phenyl)imidazo[1,2-a]pyridin-2-yl)cyclopropane-1-carboxamide], for which the concentration for half-maximal inhibition (IC50) against LRRK2 (WT) was 101 to 1000 nM; in test [1], under 10 nM; at LRRK2 G2019S, 10 to 100 nM.
As to `Cc1ccc(-n2cccn2)cc1-c1ccc2nc(NC(=O)[C@@H]3C[C@@H]3F)cn2c1` [Example 56, (1S,2S)-2-fluoro-N-(6-(2-methyl-5-(1H-pyrazol-1-yl)phenyl)imidazo[1,2-a]pyridin-2-yl)cyclopropane-1-carboxamide], the figures for the IC50 (against LRRK2 (WT); in test [1]; at LRRK2 G2019S) were 101 to 1000 nM, under 10 nM and 101 to 1000 nM, respectively.
Take `Cc1ccc2c(c1-c1ccc3nc(NC(=O)[C@@H]4C[C@@H]4F)cn3c1)CC(=O)N2` [Example 51, (1S,2S)-2-fluoro-N-(6-(5-methyl-2-oxoindolin-4-yl)imidazo[1,2-a]pyridin-2-yl)cyclopropane-1-carboxamide]: the IC50 against LRRK2 (WT) was over 1000 nM; in test [1] it was under 10 nM; at LRRK2 G2019S it was over 1000 nM.
For the compound `Cc1ccc(C#N)cc1-c1ccc2nc(NC(=O)[C@@H]3C[C@@H]3F)cn2c1` [Example 17, (1S,2S)—N-(6-(5-cyano-2-methylphenyl)imidazo[1,2-a]pyridin-2-yl)-2-fluorocyclopropane-1-carboxamide], the concentration for half-maximal inhibition (IC50) is 101 to 1000 nM against LRRK2 (WT), under 10 nM in test [1] and 101 to 1000 nM at LRRK2 G2019S.
On to `Cc1c(-c2ccc3nc(NC(=O)[C@@H]4C[C@@H]4F)cn3c2)ccc(F)c1F` [Example 44, (1S,2S)—N-(6-(3,4-difluoro-2-methylphenyl)imidazo[1,2-a]pyridin-2-yl)-2-fluorocyclopropane-1-carboxamide], for which the figures for the IC50 (against LRRK2 (WT); in test [1]; on LRRK2 G2019S) were 101 to 1000 nM, under 10 nM and 10 to 100 nM, respectively.
For the compound `CC(C)NCc1c(F)cccc1-c1ccc2nc(NC(=O)[C@@H]3C[C@@H]3F)cn2c1` [Example 81, (1S,2S)-2-fluoro-N-(6-(3-fluoro-2-((isopropylamino)methyl)phenyl)imidazo[1,2-a]pyridin-2-yl)cyclopropanecarboxamide], the IC50 (against LRRK2 (WT); in test [1]; at LRRK2 G2019S) was over 1000 nM in each case.
In the case of `O=C(Nc1cn2cc(-c3cccc(F)c3CO)ccc2n1)[C@@H]1C[C@@H]1F` [Example 57, (1S,2S)-2-fluoro-N-(6-(3-fluoro-2-(hydroxymethyl)phenyl)imidazo[1,2-a]pyridin-2-yl)cyclopropane-1-carboxamide], the values for the 50% inhibitory concentration (IC50) (against LRRK2 (WT); in test [1]; on LRRK2 G2019S) were over 1000 nM, under 10 nM and over 1000 nM, respectively.
With `Cc1c(O)cccc1-c1ccc2nc(NC(=O)[C@@H]3C[C@@H]3F)cn2c1` [Example 20, (1S,2S)-2-fluoro-N-(6-(3-hydroxy-2-methylphenyl)imidazo[1,2-a]pyridin-2-yl)cyclopropane-1-carboxamide], the IC50 was under 10 nM at LRRK2 (WT), under 10 nM in test [1] and 10 to 100 nM at LRRK2 G2019S.
With `Cc1cc(N(C)C)ncc1-c1ccc2nc(NC(=O)[C@@H]3C[C@@H]3F)cn2c1` [Example 69, (1S,2S)—N-(6-(6-(dimethylamino)-4-methylpyridin-3-yl)imidazo[1,2-a]pyridin-2-yl)-2-fluorocyclopropanecarboxamide], the IC50 on LRRK2 (WT) is over 1000 nM; in test [1], 101 to 1000 nM; on LRRK2 G2019S it was over 1000 nM.
On to `Cc1c[nH]nc1-c1ccc2nc(NC(=O)[C@@H]3C[C@@H]3F)cn2c1` [Example 19, (1S,2S)-2-fluoro-N-(6-(4-methyl-1H-pyrazol-3-yl)imidazo[1,2-a]pyridin-2-yl)cyclopropane-1-carboxamide], for which the figures for the IC50 (against LRRK2 (WT); in test [1]; on LRRK2 G2019S) were 101 to 1000 nM, 10 to 100 nM and 101 to 1000 nM, respectively.
Regarding `Cc1ccnc(F)c1-c1ccc2nc(NC(=O)[C@@H]3C[C@@H]3F)cn2c1` [Example 47, (1S,2S)-2-fluoro-N-(6-(2-fluoro-4-methylpyridin-3-yl)imidazo[1,2-a]pyridin-2-yl)cyclopropane-1-carboxamide], the IC50 was in the range of 101 to 1000 nM against LRRK2 (WT), 10 to 100 nM in test [1] and 10 to 100 nM on LRRK2 G2019S.
In the case of `O=C(Nc1cn2cc(-c3ccc4sc(=O)[nH]c4c3)ccc2n1)[C@@H]1C[C@@H]1F` [Example 54, (1S,2S)-2-fluoro-N-(6-(2-oxo-2,3-dihydrobenzo[d]thiazol-5-yl)imidazo[1,2-a]pyridin-2-yl)cyclopropane-1-carboxamide], the IC50 against LRRK2 (WT) is over 1000 nM; in test [1], 10 to 100 nM; on LRRK2 G2019S it was 101 to 1000 nM.
On to `Cc1c(F)ccc(-c2ccc3nc(NC(=O)[C@@H]4C[C@@H]4F)cn3c2)c1C` [Example 37, (1S,2S)-2-fluoro-N-(6-(4-fluoro-2,3-dimethylphenyl)imidazo[1,2-a]pyridin-2-yl)cyclopropane-1-carboxamide], for which the half-maximal inhibitory concentration (IC50) was 101 to 1000 nM against LRRK2 (WT), under 10 nM in test [1] and 101 to 1000 nM on LRRK2 G2019S.
Regarding `O=C(Nc1cn2cc(-c3cnc4[nH]ccc4c3)ccc2n1)[C@@H]1C[C@@H]1F` [Example 27, (1S,2S)—N-(6-(1H-pyrrolo[2,3-b]pyridin-5-yl)imidazo[1,2-a]pyridin-2-yl)-2-fluorocyclopropane-1-carboxamide], the IC50 against LRRK2 (WT) is 101 to 1000 nM; in test [1], under 10 nM; at LRRK2 G2019S it was 10 to 100 nM.
`O=C(Nc1cn2cc(-c3cccc(F)c3-c3ccco3)ccc2n1)[C@@H]1C[C@@H]1F` [Example 65, (1S,2S)-2-fluoro-N-(6-(3-fluoro-2-(furan-2-yl)phenyl)imidazo[1,2-a]pyridin-2-yl)cyclopropanecarboxamide]: the concentration for half-maximal inhibition (IC50) is over 1000 nM against LRRK2 (WT), 10 to 100 nM in test [1] and over 1000 nM at LRRK2 G2019S.
Take `Cc1ccc2[nH]cc(C)c2c1-c1ccc2nc(NC(=O)[C@@H]3C[C@@H]3F)cn2c1` [Example 63, (1S,2S)—N-(6-(3,5-dimethyl-1H-indol-4-yl)imidazo[1,2-a]pyridin-2-yl)-2-fluorocyclopropanecarboxamide]: the IC50 is 101 to 1000 nM against LRRK2 (WT), under 10 nM in test [1] and 10 to 100 nM at LRRK2 G2019S.
Turning to `Cc1cc(Cl)ccc1-c1ccc2nc(NC(=O)[C@@H]3C[C@@H]3F)cn2c1` [Example 29, (1S,2S)—N-(6-(4-chloro-2-methylphenyl)imidazo[1,2-a]pyridin-2-yl)-2-fluorocyclopropane-1-carboxamide], the IC50 against LRRK2 (WT) was 101 to 1000 nM; in test [1], under 10 nM; on LRRK2 G2019S, 101 to 1000 nM.

As a reminder, the IC50 is the concentration that inhibits the measured activity by half.
